Consider three compounds from US11492347B2 (ENYO PHARMA, priority 2018, dated 2022).

As a reminder, the IC50 is the concentration at which inhibition is half-maximal. As usually defined, the EC50 is the concentration giving half of the maximal effect. Lower therefore signals an effect from little substance.

Each structure is given as a SMILES string.

Assay [1] concerns MMXF L-363. The experiment in a line: Cytotoxicity, propidium iodide based monolayer assay. The assay is classed as cell-based. Conditions: Homo sapiens, 96 h; MMXF L-363 multiple myeloma, four days of treatment, T/C=50%; read-out: Absolute IC50.
For assay [2], the system named is NFκB. The experiment in a line: NFκB reporter assay, TNFα stimulation of A549 NFκB-NanoLuciferase reporter cells. Conditions: Homo sapiens, 4 ng/ml TNFα, NanoGlo luciferase assay 6 hours later. The assay is classed as cell-based. Background: A reporter such as luciferase makes a cellular process visible.
The subject of assay [3] is PRXF PC-3M. The experiment in a line: Cytotoxicity, propidium iodide based monolayer assay. The assay is classed as cell-based. The settings on record: Homo sapiens, 96 h; PRXF PC-3M prostate adeno carcinoma, four days of treatment, T/C=50%; read-out: Absolute IC50.
The test system of assay [4] is MAXF 401. The assay is described as above. The assay is classed as cell-based. Conditions: Homo sapiens, MAXF401, 96 h; MAXF 401 breast adeno carcinoma, four days of treatment, T/C=50%; read-out: Absolute IC50.
Assay [5] relates to LXFL 1121. The description is as above. Conditions: 96 h; LXFL 1121 lung large cell carcinoma, four days of treatment, T/C=50%; read-out: Absolute IC50. As to the method:
The cytotoxicity was tested for compounds of the invention on five different cell-lines, namely LXFL 1121, MAXF 401, MMXF L-636, PRXF PC-3M and UXF 1138 which are respectively lung large cell carcinoma, breast adeno carcinoma, multiple myeloma, prostate adeno carcinoma and uterine sarcoma.
A working stock solution of the test compounds was prepared in DMSO at a concentration of 33 mM or 8.25 mM, and small aliquots were stored at −20° C. On each day of an experiment, a frozen aliquot of the working stock solution was thawed and stored at room temperature prior to and during treatment.
All liquid handling steps were performed using the Tecan Freedom EVO 200 platform. First, serial 2-fold dilutions of the 33 mM DMSO working stock solution were done in DMSO. The DMSO dilutions were then diluted 1:22 into cell culture medium in an intermediate dilution plate. Finally, 10 μl taken from the intermediate dilution plate were transferred to 140 μl/well of the final assay plate. Thus, the DMSO serial dilutions were diluted 1:330 with cell culture medium, and the DMSO concentration in the assay was 0.3% v/v.
Cell lines were routinely passaged once or twice weekly and maintained in culture for up to 20 passages. […]
A modified propidium iodide (PI) based monolayer assay was used to assess the anti-cancer activity of the compounds. Briefly, cells were harvested from exponential phase cultures, counted and plated in 96 well flat-bottom microtiter plates at a cell density of 4,000 to 40,000 cells/well dependent on the cell line's growth rate. […] After an incubation period of 1-2 hours at room temperature, fluorescence (FU) was measured using the Enspire Multimode Plate Reader (excitation λ=530 nm, emission k=620 nm) to quantify the amount of attached viable cells.
Drug effects were expressed in terms of the percentage of the fluorescence signal, obtained by comparison of the mean signal in the treated wells with the mean signal of the untreated controls (expressed by the test-versus-control value, T/C−value [%]): […]

Take `CC1(C)Cc2c(sc(NC(=O)c3ccc(N4CCOCC4)cc3)c2C(=O)O)C(C)(C)C1` [Compound #36, 5,5,7,7-Tetramethyl-2-[(4-morpholinobenzoyl)amino]-4,6-dihydrobenzothiophene-3-carboxylic acid]: in assay [1], the IC50 worked out at 1.72 µM. In addition, the EC50 in assay [2] was 0.2 µM.
For `CC1(C)CCc2sc(NC(=O)c3ccccc3)c(C(=O)O)c21` [Compound #37, 2-Benzamido-4,4-dimethyl-5,6-dihydrocyclopenta[b]thiophene-3-carboxylic acid], the IC50 came to 9.67 µM in assay [3], 13.9 µM in assay [1], 11.3 µM in assay [4] and 24.7 µM in assay [5].
On to `COC1CN(c2ccc(C(=O)Nc3sc4c(c3C(=O)O)CC(C)(C)CC4(C)C)cc2)C1` [Compound #58, 2-[[4-(3-Methoxyazetidin-1-yl)benzoyl]amino]-5,5,7,7-tetramethyl-4,6-dihydrobenzothiophene-3-carboxylic acid], for which the IC50 in assay [3] was 0.888 µM; in assay [5], 1.77 µM.
